Results from paper PMC12627007, “HIV nucleocapsid proteins as targets for novel 1,2-benzisothiazol-3(2H)-one benzenesulfonamides: synthesis and antiretroviral activity” (Frontiers in Microbiology, 2025).
Read-outs that look alike come from different tables or passages of the source.

Tests used:
[1] = test system: HIV-1 SAQR (L10F, G48V, L90M); assay: Inhibition of virus-induced cytopathogenicity in MT-4 cells, PRI-resistant mutant SAQR; type: cell-based; conditions: for EC50: Human immunodeficiency virus 1, MT4, read-out: EC50 SAQR
Method: (§1) HIV-1IIIB and HIV-2 CBL-20 strains were obtained from the supernatants of persistently infected H9/IIIB and CEM cells, respectively. HIV-1 and HIV-2 stock solutions had titres of 4.5 × 10^7 and 1.4 × 10^6 50% cell culture infectious doses (CCID50)/ml, respectively. […] The K103R + V179D + P225H mutant (EFVR) was derived from an IIIB strain passaged in MT-4 cells in the presence of Efavirenz (up to 2 μM). N119, A17 and EFV^R stock solutions had titres of 1.2 × 10^8, 2.1 × 10^7, and 4.0 × 10^7 CCID50/ml, respectively.
(§2) The activity of the test compounds against the replication of HIV-1 wt and mutant strains (N119, A17, EFV^R, AZT^R, MDR, SAQ^R) and HIV-2 wt in acutely infected cells was based on the inhibition of virus-induced cytopathogenicity in MT-4 and C8166 cells, respectively. Briefly, 50 μL of culture medium containing 1 × 10^4 cells was added to each well of flat-bottom microtitre trays containing 50 μL of culture medium with or without different serial concentrations of test compounds. Then, 20 μL of an HIV suspension (containing the appropriate amount of CCID50 required to cause complete cytopathogenicity on day 4, final multiplicity of infection [m.o.i.] 0.01) was added.

HIV-2 CBL-20 strain = assay: Inhibition of HIV-2-induced cytopathogenicity in C8166 cells (MTT); type: cell-based
Method: as §1, §2

cell-free HIV-2 = assay: Virucidal activity against cell-free HIV-2 (Reed-Muench titration); type: cell-based
Method: (§3) Cell-free, high-titre HIV-1 and HIV-2 stock solutions were exposed to the test compounds for 2 h at 0 °C or 37 °C. At the end of incubation, residual infectivity was determined using the Reed–Muench end-point titration method, as described below.
(§4) Titration was performed in C8166 cells using the standard limiting dilution method (dilution 1:2, four replica wells/dilution) in 96-well plates.

[2] = Cytotoxicity in mock-infected MT-4 cells (MTT method); type: cell-based; conditions: human
Method: as §2, with “added. After incubation at 37 °C, cell viability was determined using the […] (MTT) method ([Pauwels et al., 1988]). The cytotoxicity of the test compounds was evaluated in parallel with their antiviral activity through the viability of mock-infected, treated cells, as monitored by the MTT method and described elsewhere ([Morellet et al., 1994]).” for “added.”

[3] = test system: HIV-1 MDR (74V, 41L, 106A, 215Y); assay: Inhibition of virus-induced cytopathogenicity in MT-4 cells, NRTI-resistant mutant MDR; type: cell-based; conditions: for EC50: Human immunodeficiency virus 1, MT4, read-out: EC50 MDR
Method: as §1, §2

HIV-1 wt = assay: Time of addition assay in MT-4 cells; type: cell-based; conditions: compound 6 15 μM, EFV 0.05 μM; MT-4, m.o.i. 5
Method: 2 × 10^4 MT-4 cells were infected for 1 h at 20 °C with HIV-1 at a high multiplicity of infection (m.o.i. = 5), corresponding to 5 cell culture infectious dose 50 per cell (CCID50/cell).
as §4
Virus yields were determined using the Reed–Muench method. Bars are mean values, and whiskers are standard deviations (SD) of three independent experiments.

[4] = test system: HIV-1 AZTR (67N, 70R, 215F, 219Q); assay: Inhibition of virus-induced cytopathogenicity in MT-4 cells, NRTI-resistant mutant AZTR; type: cell-based; conditions: for EC50: Human immunodeficiency virus 1, MT4, read-out: EC50 AZTR
Method: as §1, §2

[5] = microbe, parasite or virus in culture; type: cell-based, HIV-1; conditions: all tested strains (HIV-1 wt, mutants, HIV-2)
Method: as §1, §2

HIV-1 IIIB strain = assay: microbe, parasite or virus in culture; type: cell-based; conditions: for EC50: Human immunodeficiency virus 1, IIIB
Method: as §1, §2

[6] = test system: HIV-1 A17 (K103N + Y181C); assay: Inhibition of virus-induced cytopathogenicity in MT-4 cells, NNRTI-resistant mutant A17; type: cell-based; conditions: for EC50: Human immunodeficiency virus 1, MT4, read-out: EC50 A17
Method: as §1, §2

[7] = test system: HIV-1 EFVR (K103R + V179D + P225H); assay: Inhibition of virus-induced cytopathogenicity in MT-4 cells, NNRTI-resistant mutant EFVR; type: cell-based; conditions: for EC50: Human immunodeficiency virus 1, MT4, read-out: EC50 EFVR
Method: as §1, §2

[8] = biological target: T1, HIV-1 reverse transcriptase (Human immunodeficiency virus type 1 group M subtype B, UniProt P04585); assay: Reverse transcriptase enzyme assay; type: biochemical
T1 construct: recombinant HIV-1 reverse transcriptase

[9] = test system: chronically HIV-1-infected H9 cells / uninfected C8166 cells; assay: Syncytium formation in chronically infected H9/C8166 cocultures (entry assay); type: cell-based; conditions: 36 h
Method: Chronically infected H9 cells were washed and cocultured with uninfected C8166 cells (ratio 1:500) in the absence or presence of test inhibitors. Following 36 h of incubation at 37 °C, cocultures were monitored by optical microscopy, syncytia were counted, and those found in drug-treated cocultures were reported as a percentage of those counted in untreated cocultures ([Wang et al., 2004]).
In this assay, syncytia were formed as a result of the interaction of env-encoded glycoproteins (present on the outer membrane of chronically infected H9 cells) with the CD4 of cocultured C8166 cells.
Figure 3 Comparative activity of compound 6 (30 μM) and dextran sulphate (0.5 μM) in preventing syncytium formation in chronically infected H9/C8166 cocultures. The H9/C8166 ratio was […]. The cells were incubated for 36 h at 37 °C. Data represent mean values of at least three independent determinations of syncytial numbers using an optical microscope. Bars are mean values, and whiskers are standard deviations (SD) of at least three independent experiments.

HIV-1 N119 (Y181C) = assay: Inhibition of virus-induced cytopathogenicity in MT-4 cells, NNRTI-resistant mutant N119; type: cell-based; conditions: for EC50: Human immunodeficiency virus 1, MT4, read-out: EC50 N119
Method: as §1, §2

[10] = biological target: T2, HIV-1 recombinant integrase (rIN) (Human immunodeficiency virus type 1 group M subtype B, UniProt P04585); assay: Integrase (rIN) enzyme assays: 3'-processing and strand transfer; type: biochemical; conditions: for IC50: recombinant HIV-1 integrase
T2 construct: HIV-1 recombinant integrase (rIN); made in house
Description: ^aCompound concentration (µM) required to reduce the amount of 3’-end-labeled duplex of 21/19mers substrates, in 3’-processing and strand-transfer reactions catalyzed by the recombinant HIV-1 integrase, by 50%. Data represent mean values for three independent determinations.

cell-free HIV-1 = assay: Virucidal activity against cell-free HIV-1 (Reed-Muench titration); type: cell-based; conditions: for Infectivity inactivation of cell-free HIV-1: 37 °C
Method: as §3, §4

[11] = Human immunodeficiency virus 2, C8166, read-out: EC50 HIV-2
[12] = Human immunodeficiency virus 2, C8166, read-out: EC50 HIV-2 (Table 2)
[13] = 0 °C, compound 6 80 μM, AMPH-B 100 μM
[14] = MT4, read-out: EC50 HIV-1 (Table 2)

Compound: O=c1c2ccccc2sn1NS(=O)(=O)c1ccccc1 [Compound 6, N-(3-Oxo-1,2-benzisothiazol-2(3H)-yl)benzenesulfonamide]
- EC50 [1]: 8 ± 0.7 µM
- Selectivity Index (SI = CC50/EC50) SAQR ([1]; in round brackets): 10
- EC50 (HIV-2 CBL-20 strain; [11]): 7 ± 0.7 µM
- EC50 (HIV-2 CBL-20 strain; [12]): 7 ± 0.7 µM
- Selectivity Index (SI = CC50/EC50) HIV-2 (HIV-2 CBL-20 strain; in round brackets): 12
- Effect on HIV-2 infectivity, incubation at 0 °C (cell-free HIV-2; [13]): failed to significantly affect HIV-2 infectivity
- Infectivity inactivation of cell-free HIV-2 (cell-free HIV-2; 25 and 12.5 μM, 37 °C): only marginal or no effects
- Inactivation of HIV-2 virion infectivity (cell-free HIV-2; 37 °C, compound 6 80 μM, AMPH-B 100 μM): approximately 2 log10
- Infectivity inactivation of cell-free HIV-2 (cell-free HIV-2; 100 and 50 μM, 37 °C): strongly inactivated the infectivity
- CC50 at 4 days [2]: 86 ± 4 µM
- EC50 [3]: 4 ± 1.5 µM
- Selectivity Index (SI = CC50/EC50) MDR ([3]; in round brackets): 21
- Infectious virus yield when compound present only during the 1-h infection period (HIV-1 wt): infectious virus yield similar to that of the untreated infected controls
- Time of addition p.i. up to which the compound still prevents virus yield (HIV-1 wt): up to 12 h
- EC50 [4]: 6 ± 0.7 µM
- Selectivity Index (SI = CC50/EC50) AZTR ([4]; in round brackets): 14
- Selectivity Index (SI) against all tested strains [5]: around 10
- EC50 (HIV-1 IIIB strain; MT4, read-out: EC50 HIV-1): 8 ± 3 µM
- EC50 (HIV-1 IIIB strain; [14]): 8 ± 3 µM
- Selectivity Index (SI = CC50/EC50) HIV-1 (HIV-1 IIIB strain; IIIB strain, in round brackets): 10
- EC50 [6]: 8 ± 1 µM
- Selectivity Index (SI = CC50/EC50) A17 ([6]; in round brackets): 10
- EC50 [7]: 7 ± 2 µM
- Selectivity Index (SI = CC50/EC50) EFVR ([7]; in round brackets): 12
- Inhibition of recombinant HIV-1 RT ([8]; at concentrations of 30 μM): none of the benzenesulfonamides were active
- IC50 ([8]; virion-associated RT): > 30 µM
- Interference with syncytia formation / very early events (adsorption/attachment/fusion) ([9]; 30 μM): did not interfere
- EC50 (HIV-1 N119 (Y181C)): 7 ± 1.5 µM
- Selectivity Index (SI = CC50/EC50) N119 (HIV-1 N119 (Y181C); in round brackets): 12
- Inhibition of recombinant HIV-1 IN ([10]; at concentrations of 30 μM): none of the benzenesulfonamides were active
- IC50 ([10]; read-out: IC50 3'-Processing): > 30 µM
- IC50 ([10]; read-out: IC50 Strand-transfer): > 30 µM
- Effect on HIV-1 infectivity, incubation at 0 °C (cell-free HIV-1; [13]): failed to affect HIV-1 infectivity
- Infectivity inactivation of cell-free HIV-1 (cell-free HIV-1; 25 and 12.5 μM): only marginal or no effects
- Infectivity inactivation of cell-free HIV-1 (cell-free HIV-1; 100 and 50 μM): strongly inactivated the infectivity
- Inactivation of HIV-1 infectivity (cell-free HIV-1; 2 h at 37 °C, compound 6 80 μM, AMPH-B 100 μM): more than 3 log10

Compound: O=C1Nc2ccc(Cl)cc2[C@@](C#CC2CC2)(C(F)(F)F)O1 [EFV, efavirenz, reference compound]
- EC50 [1]: 0.007 ± 0.005 µM
- EC50 (HIV-2 CBL-20 strain; [11]): > 20 µM
- EC50 (HIV-2 CBL-20 strain; [12]): > 20 µM
- CC50 at 4 days ([2]; MT-4, MTT method): 30 ± 5 µM
- EC50 [3]: 0.004 µM
- Infectious virus yield when compound present only during the 1-h infection period (HIV-1 wt): infectious virus yield similar to that of the untreated infected controls
- Time of addition p.i. up to which the compound still prevents virus yield (HIV-1 wt): ≤ 4 h
- EC50 [4]: 0.002 ± 0.0003 µM
- EC50 (HIV-1 IIIB strain; MT4, read-out: EC50 HIV-1): 0.002 ± 0.0003 µM
- EC50 (HIV-1 IIIB strain; [14]): 0.002 ± 0.0003 µM
- EC50 [6]: 0.3 ± 0.009 µM
- EC50 [7]: 3 ± 1 µM
- EC50 (HIV-1 N119 (Y181C)): 0.008 ± 0.003 µM

Compound: dextran sulphate [reference compound]
- Prevention of syncytia formation ([9]; 0.5 μM): 98%
